Patent publication US9434739B2, “Systemic insecticide” (priority 2007, dated 2016)

What was measured:
[1] = test system: Aphis gossypii; experiment: Soil drenching with single agent and admixture on cucumber against Aphis gossypii (Test Example 8); format: in vivo; settings: for Preventive value: 2 days after release
Experimental: Cucumber seedlings were treated by soil drenching with a single agent and an admixture adjusted to a predetermined concentration with water. The chemical was absorbed through the root for two days, and four adults of Aphis gossypii for each seedling were released on the seedlings. Thereafter, the seedlings were allowed to stand in a thermostatic chamber of 25° C. 2 days after the release, the number of parasites on the leaves was observed. The density index in each treated plot was determined by presuming the density in the non-treated plot to be 100. The preventive value was calculated by the following equation. Preventive value=100−density index
(§1) When the density index exceeded 100, the preventive value was regarded as 0 (zero).
(§2) Theoretical value=A+B−(A×B)/100 Colby's formula
(§3) where A: preventive value when treatment was performed only with compound 4, and
B: preventive value when treatment was performed only with each of acephate and imidacloprid.
When the numerical value for the admixture in Table 10 exceeded the theoretical value calculated by the Colby's formula shown in Table 11, the admixture was determined to have a synergistic effect.

[2] = test system: Rhopalosiphum padi; experiment: Root soaking with single agent and admixture on wheat against Rhopalosiphum padi (Test Example 9); format: in vivo; settings: for Preventive value: six days after release
Experimental: The root of wheat seedlings 48 hr after seeding was soaked for 72 hr in an admixture solution, adjusted to a predetermined concentration, as a 10% aqueous acetone solution. 72 hrs after the treatment, 10 larval Rhopalosiphum padi for each seedling were released on the seedlings. Thereafter, the seedlings were allowed to stand in a thermostatic chamber of 25° C. The number of parasites on stems and leaves was observed six days after the release. The density index of each of the treated plots was determined by presuming the density of the non-treated plots to be 100, and the preventive value was calculated by the same equation as in Test Example 8.
as §1, §2, §3
B: preventive value when treatment was performed only with each of acetamiprid, acephate, and imidacloprid.
When the preventive value against Rhopalosiphum padi for the admixture in Table 12 exceeded the theoretical value calculated by the Colby's formula shown in Table 13, the admixture was determined to have a synergistic effect.

[3] = test system: Rhopalosiphum padi; experiment: Root soaking treatment test on wheat seedlings against Rhopalosiphum padi (Test Example 3 and Comparative Tests); format: in vivo; settings: wheat seedling root soaked 72 hr in test solution (100 ppm), 20 μg/seedling, 25° C.
Experimental: The root of wheat seedlings 48 hr after seeding was soaked for 72 hr in a test solution (100 ppm) prepared as a 10% aqueous acetone solution. 72 hrs after the treatment, 10 larval Rhopalosiphum padi were released for each seedling. Thereafter, the seedlings were allowed to stand in a thermostatic chamber of 25° C. The number of parasites on stems and leaves was observed six days after the release, and the density index was calculated by the same equation as in Test Example 1. The test was duplicated.
For compounds 8 and 9 described in Table 6, a insecticidal effect against Rhopalosiphum padi was examined in the same manner as in Test Example 3.

[4] = test system: Trialeurodes uaporariorum; experiment: Soil drenching treatment test on cucumber against Trialeurodes uaporariorum (Test Example 5); format: in vivo; settings: soil drenching of cucumber pot, 0.5 mg/seedling, larvae, 9 days after drenching
Experimental: Adults of Trialeurodes uaporariorum were released on cucumber seedlings, grown in a pot, for egg laying purposes for two days. 10 days after the start of egg laying, it was confirmed that larvae were hatched from the delivered eggs. The soil in the cucumber pot was drenched with 5 mL of a test solution adjusted to a predetermined concentration with a 10% aqueous acetone solution. The cucumber pot was allowed to stand in a thermostatic chamber of 25° C. (light period 16 hr-dark period 8 hr). 9 days after the drenching, the number of survived larvae was measured, and the mortality of larvae was calculated by the following equation. The test was duplicated. Mortality (%)={(number of larvae before treatment−number of survived larvae)/number of larvae before treatment}×100

[5] = test system: Laodelphax stratella; experiment: Soil drenching treatment test on rice seedlings against Laodelphax stratella (Test Example 6); format: in vivo; settings: soil drenching of rice pot, 0.5 mg/seedling, second instar larvae, 3 days after release
Experimental: (§4) Rice seedlings grown in a pot were provided. Soil in the pot was drenched with a test solution adjusted to a predetermined concentration with a 10% aqueous acetone solution. After standing for three days, 10 larvae at the second instar were released on the rice seedlings. Thereafter, the pot was allowed to stand in a thermostatic chamber of 25° C. (light period 16 hr-dark period 8 hr). 3 days after the release, the number of survived larvae was measured, and the mortality of larvae was calculated by the same equation as in the Reference Test. The test was duplicated.

[6] = test system: Nephotettix cincticeps; experiment: Soil drenching treatment test on rice seedlings against Nephotettix cincticeps (Test Example 7); format: in vivo; settings: soil drenching of rice pot, 1.0 mg/seedling, second instar larvae, 3 days after release
Experimental: as §4, with “seedling.” for “seedlings.”

[7] = test system: Myzus persicae Sulzer; experiment: Reference Test: cabbage leaf disk spraying treatment against Myzus persicae Sulzer; format: in vivo; settings: 20 ppm test solution spread over cabbage leaf disk, first instar larvae, three days after release, 25° C.
Description: A leaf disk having a diameter of 2.8 cm was cut out from a cabbage grown in a pot and was placed in a 5.0 cm-Schale. Four adult aphids of Myzus persicae Sulzer were released in the Schale. One day after the release of the adult aphids, the adult aphids were removed. The number of larvae at the first instar born in the leaf disk was adjusted to 10, and 20 ppm of a test solution which had been prepared as a 50% aqueous acetone solution (0.05% Tween 20 added) was spread over the cabbage leaf disk. The cabbage leaf disk was then air dried. Thereafter, the Schale was lidded and was allowed to stand in a thermostatic chamber of 25° C. […] Mortality (%)={number of dead larvae/(number of survived larvae+number of dead larvae)}×100

[8] = test system: Tenebrio molitor; settings: described in WO 2004/060065 and Applied and Environmental Microbiology (1995), 61(12), 4429-35; cited from earlier work
[9] = test system: Helicoverpa armiger; settings: described in WO 2004/060065 and Applied and Environmental Microbiology (1995), 61(12), 4429-35; cited from earlier work
[10] = test system: Plutella xylostella; settings: described in WO 2004/060065 and Applied and Environmental Microbiology (1995), 61(12), 4429-35; cited from earlier work
[11] = Compound 4 0 mg/seedling, acephate 0.1 mg/seedling, imidacloprid 0.005 mg/seedling
[12] = Compound 4 0 mg/seedling, other insecticide alone (acephate 0.1 mg/seedling, imidacloprid 0.005 mg/seedling)
[13] = Compound 4 0 μg/seedling, acetamiprid 0.0078, acephate 0.5, imidacloprid 0.0078 μg/seedling
[14] = Compound 4 0 μg/seedling, other insecticide alone (acetamiprid 0.0078, acephate 0.5, imidacloprid 0.0078 μg/seedling)
[15] = Compound 4 0.05 mg/seedling, alone (—) or with acephate 0.1 mg/seedling or imidacloprid 0.005 mg/seedling
[16] = Compound 4 0.5 μg/seedling, alone (—) or with acetamiprid 0.0078, acephate 0.5 or imidacloprid 0.0078 μg/seedling

**Q.** For `COP(=O)(NC(C)=O)SC` (centres unmarked) [Acephate, acephate], which “Theoretical value calculated by Colby's formula” value (from here on “Theoretical value calculated”) [1, 11] is on record?
**A.** The value was 70.

**Q.** What about the Preventive value [1, 12] of the same compound?
**A.** The Preventive value was 70.

**Q.** And the “Theoretical value calculated” value [2, 13]?
**A.** Its value is 55.6.

**Q.** And the Preventive value [2, 14]?
**A.** The Preventive value was 55.6.

**Q.** For `C/C(=N\C#N)N(C)Cc1ccc(Cl)nc1` [Acetamiprid, acetamiprid], which “Theoretical value calculated” value [2, 13] is on record?
**A.** Its value is 5.9.

**Q.** What about the Preventive value [2, 14] of the same compound?
**A.** The Preventive value was 5.9.

**Q.** With `CC1(COC(=O)C2CC2)C2C[C@H](O)[C@@]3(C)Oc4cc(-c5cccnc5)oc(=O)c4[C@H](O)C3[C@@]2(C)CC[C@@H]1OC(=O)C1CC1` (some centres unmarked) [Compound 4] as the compound, how does the “Density index 6 days after release” value [3] read?
**A.** The value was 5.

**Q.** What about the “Theoretical value calculated” value [1, 15] of the same compound?
**A.** Its value is 0.

**Q.** And the Preventive value [1, 15]?
**A.** Its Preventive value is 0.

**Q.** What about the “Mortality (%)” value [4] of the same compound?
**A.** Its value is 67%.

**Q.** What about the “Mortality (%)” value [5] of the same compound?
**A.** The value was 34%.

**Q.** And the “Theoretical value calculated” value [2, 16]?
**A.** The value was 0.

**Q.** And the Preventive value [2, 16]?
**A.** Its Preventive value is 0.

**Q.** What about the “Mortality (%)” value [6] of the same compound?
**A.** The value was 60%.

**Q.** And the Mortality [7]?
**A.** Its Mortality is 100%.

**Q.** Which “Density index 6 days after release” value [3] does the source give for `CC1(COC(=O)C2CC2)C2CC(=O)[C@@]3(C)Oc4cc(-c5cccnc5)oc(=O)c4[C@H](O)C3[C@@]2(C)CC[C@@H]1OC(=O)C1CC1` (some centres unmarked) [Compound 6] here?
**A.** Its value is 0.

**Q.** What about the Mortality [7] of the same compound?
**A.** The Mortality was 100%.

**Q.** What does the source list for `CC1(COC(=O)C2CC2)C2CC[C@@]3(C)Oc4cc(-c5cccnc5)oc(=O)c4[C@H](O)C3[C@@]2(C)CC[C@@H]1OC(=O)C1CC1` (some centres unmarked) [Compound 7]?
**A.** Density index 6 days after release [3]: 41; Mortality [7]: 100%

**Q.** What does the source list for `O=[N+]([O-])NC1=NCCN1Cc1ccc(Cl)nc1` [Imidacloprid, imidacloprid]?
**A.** Theoretical value calculated by Colby's formula [1, 11]: 16; Preventive value [1, 12]: 16; Theoretical value calculated by Colby's formula [2, 13]: 28.6; Preventive value [2, 14]: 28.6

**Q.** For pyripyropene A, which insecticidal effect [8] is on record?
**A.** Its insecticidal effect is “has insecticidal effect”.

**Q.** And the insecticidal effect [9]?
**A.** Its insecticidal effect is “has insecticidal effect”.

**Q.** And the insecticidal effect [10]?
**A.** The insecticidal effect was “has insecticidal effect”.
